Measured values from patent US9289400B2, “D3 dopamine receptor agonists to treat dyskinesia in parkinson's disease” (priority 2010, dated 2016).
Entries after “also recorded” stand apart in the source; their conditions may differ. Where two headings read alike, the source gives them in different places. Marks after values point to notes of the source that are not given here.

Columns and labels:
[1] = system: intrastriatal 6-OHDA lesioned rats; experiment: Forelimb stepping test in intrastriatal 6-OHDA lesioned rats; settings: for motor deficits in a rat PD model: FIG. 18
D2L dopamine receptor [2] = target: T1, D2L dopamine receptor (Homo sapiens (Human), UniProt P14416); experiment: GIRK channel activation, whole cell voltage clamp, AtT-20 cells stably expressing D2L; type: cell-based; settings: for GIRK channel activation: agonist type: versus full agonist quinpirole
T1 sequence (P14416 whole entry): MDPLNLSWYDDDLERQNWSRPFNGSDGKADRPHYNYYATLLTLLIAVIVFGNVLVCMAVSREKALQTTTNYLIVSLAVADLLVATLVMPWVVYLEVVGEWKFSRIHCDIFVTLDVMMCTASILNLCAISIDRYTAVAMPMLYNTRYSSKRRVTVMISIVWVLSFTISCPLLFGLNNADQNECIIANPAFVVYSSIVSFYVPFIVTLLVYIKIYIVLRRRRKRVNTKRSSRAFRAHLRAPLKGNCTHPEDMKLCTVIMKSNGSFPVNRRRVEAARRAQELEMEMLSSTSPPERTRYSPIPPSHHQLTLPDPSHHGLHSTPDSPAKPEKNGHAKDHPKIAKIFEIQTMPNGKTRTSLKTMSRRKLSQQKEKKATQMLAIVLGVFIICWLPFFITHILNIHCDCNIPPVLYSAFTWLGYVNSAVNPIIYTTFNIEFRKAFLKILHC
Procedure: The activation of the GIRK channels was measured electrophysiologically using whole cell voltage clamp recording (Kuzhikandathil et al., 2004, Mol. Cell. Neurosci. 26:144-155). The GIRK channel responses elicited with new ligands were compared to quinpirole, a classical full agonist of D2, D3 and D4 dopamine receptors. The adenylyl cyclase inhibition was determined using a commercially available ELISA assay (Westrich & Kuzhikandathil, 2007, Biochim. Biophys. Acta-Mol. Cell. Res. 1773:1747-1758).
In the first assay, whole cell voltage clamp recording is used to measure GIRK response to increasing concentrations of the lead compound (0.01 nM to 3,000 nM dose range). The EC50 values for each receptor subtype is determined by fitting the data points using the Hill equation.
AtT-20 mouse pituitary cells were grown in Ham's F10 medium with 5% FBS, 10% heat-inactivated horse serum, 2 mM glutamine and 50 μg/ml gentamicin (Invitrogen, Carlsbad, Calif.). AtT-20 cells stabling expressing the human D2S, D2L, D3, and D4.2 and receptor were maintained in the above F10 culture media supplemented with 500 μg/ml G418 (Invitrogen). For electrophysiological characterization, cells were plated onto glass coverslips coated with 40 μg/ml poly L-lysine (Sigma-Aldrich). The generation and characterization of the AtT-20 cells stably expressing various human dopamine receptors have been previously reported (Kuzhikandathil & Oxford, 2000, J. Gen. Physiol. 115:697-706; Kuzhikandathil et al., 1998, Mol. Cell. Neurosci. 12:390-402; Kuzhikandathil & Bartoszyk, 2006, Neuropharm. 51:873-884; Westrich & Kuzhikandathil, 2007, Biochim. Biophys. Acta-MCR 1773:1747-1758; Kuzhikandathil et al., 2004, Mol. Cell. Neurosci. 26:144-155; Westrich et al., 2010, Biochem. Pharmacol. 79:897-907).
Agonist-activated currents were measured by the whole-cell patch clamp technique in voltage clamp and current clamp mode as described previously (Kuzhikandathil & Oxford, 2000, J. Gen. Physiol. 115:697-706; Kuzhikandathil et al., 1998, Mol. Cell. Neurosci. 12:390-402; Kuzhikandathil & Bartoszyk, 2006, Neuropharm. 51:873-884; Westrich & Kuzhikandathil, 2007, Biochim. Biophys. Acta-MCR 1773:1747-1758; Kuzhikandathil et al., 2004, Mol. Cell. Neurosci. 26:144-155; Westrich et al., 2010, Biochem. Pharmacol. 79:897-907). Drug solutions were delivered to cells via a multi-barreled micropipette array. The current responses were normalized to the cell capacitance, to account for variation in cell size.
To compare the functional effects of the new class of D3 receptor agonists, PBZI (Table 2) and ES609 (Table 3) were tested on AtT-20 cells stably expressing human D3, D2S, D2L or D4.2. Functional efficacy was determined by assessing the ability of PBZI and ES609 to inhibit adenylyl cyclase or activate GIRK channels coupled to these “D2-like” dopamine receptors. The EC50 values of PBZI and ES609 for inhibiting adenylyl cyclase and activating GIRK channels were in the range of 0.2 nM to 30 nM for D3 receptors.

D4.2 dopamine receptor [3] = target: T2, D4.2 dopamine receptor (Homo sapiens (Human), UniProt P21917, DEL265-296); type: cell-based
T2 sequence (P21917 other isoform, or with tags, fused parts or gaps del 265-296): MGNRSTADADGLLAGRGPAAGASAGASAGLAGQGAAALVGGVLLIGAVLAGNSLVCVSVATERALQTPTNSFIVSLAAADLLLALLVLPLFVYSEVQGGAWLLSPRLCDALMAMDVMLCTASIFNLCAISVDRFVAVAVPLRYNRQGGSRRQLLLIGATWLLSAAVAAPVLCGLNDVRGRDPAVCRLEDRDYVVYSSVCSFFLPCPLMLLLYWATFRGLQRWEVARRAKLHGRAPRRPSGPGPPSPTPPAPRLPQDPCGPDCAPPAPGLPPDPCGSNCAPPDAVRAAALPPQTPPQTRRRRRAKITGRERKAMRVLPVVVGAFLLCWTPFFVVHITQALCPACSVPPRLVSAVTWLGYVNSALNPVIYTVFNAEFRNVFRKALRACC
Procedure: The EC50 values for each receptor subtype is determined by fitting the data points using the Hill equation.
(§1) AtT-20 mouse pituitary cells were grown in Ham's F10 medium with 5% FBS, 10% heat-inactivated horse serum, 2 mM glutamine and 50 μg/ml gentamicin (Invitrogen, Carlsbad, Calif.). AtT-20 cells stabling expressing the human D2S, D2L, D3, and D4.2 and receptor were maintained in the above F10 culture media supplemented with 500 μg/ml G418 (Invitrogen). For electrophysiological characterization, cells were plated onto glass coverslips coated with 40 μg/ml poly L-lysine (Sigma-Aldrich). […] Physiol. […] Neurosci. […] Biophys. […] Neurosci.
Drug solutions were delivered to cells via a multi-barreled micropipette array. The current responses were normalized to the cell capacitance, to account for variation in cell size.
(§2) To compare the functional effects of the new class of D3 receptor agonists, PBZI (Table 2) and ES609 (Table 3) were tested on AtT-20 cells stably expressing human D3, D2S, D2L or D4.2.

D4.2 dopamine receptor [4] = target: T2, D4.2 dopamine receptor; experiment: cell-based; type: cell-based
Procedure: (§3) The ability of the lead compound to dose-dependently decrease forskolin-induced cAMP levels is measured. The IC50 values for each receptor subtype is determined by fitting the data points using the Hill equation.
as §1
(§4) The cAMP levels in each treated sample were assayed in triplicate and the entire experiment repeated three independent times.
as §2

D2L dopamine receptor [5] = target: T1, D2L dopamine receptor; experiment: cell-based; type: cell-based
Procedure: as §3, §1, §4, §2

D3 dopamine receptor = D3 dopamine receptor (Homo sapiens (Human), UniProt P35462); experiment: D3 receptor tolerance and SRT: GIRK response to repeated agonist application in AtT-20 cells; type: cell-based; settings: AtT-20 cells expressing human D3, 100-300 nM agonist, repeated ~60 s applications
D3 dopamine receptor, sequence (P35462 other isoform, or with tags, fused parts or gaps): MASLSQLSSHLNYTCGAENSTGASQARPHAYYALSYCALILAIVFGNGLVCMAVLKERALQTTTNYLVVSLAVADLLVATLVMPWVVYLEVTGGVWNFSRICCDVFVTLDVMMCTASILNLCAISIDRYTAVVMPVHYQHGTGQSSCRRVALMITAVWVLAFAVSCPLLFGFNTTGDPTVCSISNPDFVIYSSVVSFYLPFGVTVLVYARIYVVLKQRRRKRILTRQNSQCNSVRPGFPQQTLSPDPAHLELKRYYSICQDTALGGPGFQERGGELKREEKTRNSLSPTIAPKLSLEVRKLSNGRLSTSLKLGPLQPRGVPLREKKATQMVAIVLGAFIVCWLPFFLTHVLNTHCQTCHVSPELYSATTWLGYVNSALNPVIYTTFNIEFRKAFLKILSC
Procedure: To determine whether a compound abolishes the D3 receptor tolerance and SRT, the D3 receptor-activated GIRK response to two consecutive treatments of the lead compound is measured. […] Drug solutions were delivered to cells via a multi-barreled micropipette array. The current responses were normalized to the cell capacitance, to account for variation in cell size.
To identify agonists that might modulate D3 receptor tolerance and SRT properties, ten distinct agonists were screened for their ability to induce tolerance and SRT, using the D3 receptor-GIRK channel signaling pathway as an assay.

CC(N)CCc1ccccc1Cl (centres unmarked) [ES609]
motor deficits in a rat PD model [1]: improve motor deficits | GIRK channel activation Ratio of ES609 to quinpirole response (at 300 nM) (D2L dopamine receptor [2]; 300 nM): 0.32* | GIRK channel activation: agonist type (D2L dopamine receptor [2]): partial agonist | GIRK channel activation: agonist type (D2L dopamine receptor [2]; listed as ES0609): Partial | GIRK channel activation: agonist type (D4.2 dopamine receptor [3]): elicited no response | GIRK channel activation EC50 (D4.2 dopamine receptor [3]; AtT-20 cells, D4.2): No response | GIRK channel activation Ratio of ES609 to quinpirole response (at 300 nM) (D4.2 dopamine receptor [3]; D4.2, 300 nM): 0^†† | GIRK response at 300 nM (D4.2 dopamine receptor [3]; D4.2, 300 nM): ^††300 nM ES609 elicits no GIRK response; but, 300 nM quinpirole elicits a full GIRK response. | GIRK channel activation: agonist type (D4.2 dopamine receptor [3]; listed as ES0609): no response | Adenylyl cyclase inhibition: agonist type (D4.2 dopamine receptor [4]): partial agonist | EC50 (D4.2 dopamine receptor [4]; AtT-20 cells, D4.2, read-out: Adenylyl cyclase inhibition EC50): 0.82 nM | Adenylyl cyclase inhibition Ratio of ES609 to quinpirole response (at 300 nM) (D4.2 dopamine receptor [4]; D4.2, 300 nM): 0.60* | Adenylyl cyclase inhibition: agonist type (D4.2 dopamine receptor [4]; listed as ES0609): Partial | Adenylyl cyclase inhibition: agonist type (D2L dopamine receptor [5]): did not elicit any response | Adenylyl cyclase inhibition EC50 (D2L dopamine receptor [5]; AtT-20 cells, D2L): No response | Adenylyl cyclase inhibition Ratio of ES609 to quinpirole response (at 300 nM) (D2L dopamine receptor [5]; D2L, 300 nM): 0^† | adenylyl cyclase inhibition at 300 nM (D2L dopamine receptor [5]; D2L, 300 nM): ^†no adenylyl cyclase inhibition in the presence of 300 nM ES609; but 300 nM quinpirole elicits ~80% inhibition. | Adenylyl cyclase inhibition: agonist type (D2L dopamine receptor [5]; listed as ES0609): No response | D3 receptor tolerance and SRT properties (agonist-induced GIRK response) (D3 dopamine receptor): did not induce tolerance and SRT; also recorded: did not show tolerance and SRT | D3 receptor tolerance and SRT properties (agonist-induced GIRK response) (D3 dopamine receptor; listed as ES 609): also abolished D3 receptor tolerance and SRT properties

CCCN1CC[C@@H]2c3cc(O)ccc3CC[C@@H]21 [PBZI, (3aS,9bR)-3-propyl-1,2,3a,4,5,9b-hexahydrobenzo[e]indol-8-ol]
motor deficits in a rat PD model [1]: improve motor deficits | effect on beneficial effect of levodopa on bradykinesia/akinesia (stepping test) ([1]; co-administration of PBZI and levodopa): did not attenuate the beneficial effect of levodopa | GIRK channel activation Ratio of PBZI to quinpirole response (at 300 nM) (D2L dopamine receptor [2]; 300 nM): 0.75 | GIRK channel activation: agonist type (D2L dopamine receptor [2]): full agonist | GIRK channel activation: agonist type (D4.2 dopamine receptor [3]): partial agonist | GIRK channel activation Ratio of PBZI to quinpirole response (at 300 nM) (D4.2 dopamine receptor [3]; D4.2, 300 nM): 0.35* | Adenylyl cyclase inhibition: agonist type (D4.2 dopamine receptor [4]): elicited no response and no | Adenylyl cyclase inhibition EC50 (D4.2 dopamine receptor [4]; AtT-20 cells, D4.2): No response | Adenylyl cyclase inhibition Ratio of PBZI to quinpirole response (at 300 nM) (D4.2 dopamine receptor [4]; D4.2, 300 nM): 0^† | adenylyl cyclase inhibition at 300 nM (D4.2 dopamine receptor [4]; D4.2, 300 nM): ^†no adenylyl cyclase inhibition in the presence of 300 nM PBZI; but 300 nM quinpirole elicits ~70% inhibition. | Adenylyl cyclase inhibition: agonist type (D2L dopamine receptor [5]): full agonist and full | EC50 (D2L dopamine receptor [5]; AtT-20 cells, D2L, read-out: Adenylyl cyclase inhibition EC50): 67 nM | Adenylyl cyclase inhibition Ratio of PBZI to quinpirole response (at 300 nM) (D2L dopamine receptor [5]; D2L, 300 nM): 0.83 | D3 receptor tolerance and SRT properties (agonist-induced GIRK response) (D3 dopamine receptor): does not elicit tolerance and SRT properties; also recorded: abolished both tolerance and SRT properties; also recorded: did not induce tolerance; also recorded: does not induce tolerance and SRT; also recorded: did not show either tolerance or SRT properties; also recorded: completely abolished the receptors' tolerance and SRT properties | D3 receptor tolerance and SRT properties (agonist-induced GIRK response) (D3 dopamine receptor; listed as cis-80H-PBZI): abolished the tolerance property
